Test results as given in patent publication US9624182B2, “Compounds as lysophosphatidic acid receptor antagonists” (Amira Pharmaceuticals, Inc., priority 2009, dated 2017).

Target: T1, human LPA1 (Homo sapiens, UniProt Q92633)
T1 construct: the full-length cDNA for human LPA1 was obtained by PCR of the reverse transcription reaction; expressed in transfected cells
Experiment: LPA1 calcium flux assay
Format: cell-based
Settings: CHO cells expressing human LPA1, stimulated with 10 nM LPA; read-out: HLPA1 Ca Flux IC50
Description: A 1.1 kb cDNA encoding the human LPA1 receptor was cloned from human lung. Human lung RNA (Clontech Laboratories, Inc. USA) was reverse transcribed using the RETROscript kit (Ambion, Inc.) and the full-length cDNA for human LPA1 was obtained by PCR of the reverse transcription reaction. The nucleotide sequence of the cloned human LPA1 was determined by sequencing and confirmed to be identical to the published human LPA1 sequence (An et al. Biochenm. Biophys. Res. Commun. 231:619 (1997). The cDNA was cloned into the pCDNA5/FRT expression plasmid and transfected in CHO cells using lipofectamine 2000 (Invitrogen Corp., USA). Clones stably expressing human LPA1 were selected using hygromycin and identified as cells that show Ca-influx in response to LPA.
Human LPA1 or LPA3 expressing CHO cells are seeded at 20,000-45,000 cells per well in a 96-well poly-D-lysine coated plate one or two days before the assay. Prior to the assay, the cells are washed once with PBS and then cultured in serum-free media overnight. On the day of the assay, a calcium indicator dye (Calcium 4, Molecular Devices) in assay buffer (HBSS with Ca^2+ and Mg^2+ and containing 20 mM Hepes and 0.3% fatty-acid free human serum albumin) is added to each well and incubation continued for 1 hour at 37° C. 10 μl of test compounds in 2.5% DMSO are added to the cells and incubation continued at room temperature for 30 minutes. Cells are the stimulated by the addition of 10 nM LPA and intracellular Ca^2+ measured using the Flexstation 3 (Molecular Devices). IC50s are determined using Graphpad prism analysis of drug titration curves.

T1 sequence (Q92633 whole entry): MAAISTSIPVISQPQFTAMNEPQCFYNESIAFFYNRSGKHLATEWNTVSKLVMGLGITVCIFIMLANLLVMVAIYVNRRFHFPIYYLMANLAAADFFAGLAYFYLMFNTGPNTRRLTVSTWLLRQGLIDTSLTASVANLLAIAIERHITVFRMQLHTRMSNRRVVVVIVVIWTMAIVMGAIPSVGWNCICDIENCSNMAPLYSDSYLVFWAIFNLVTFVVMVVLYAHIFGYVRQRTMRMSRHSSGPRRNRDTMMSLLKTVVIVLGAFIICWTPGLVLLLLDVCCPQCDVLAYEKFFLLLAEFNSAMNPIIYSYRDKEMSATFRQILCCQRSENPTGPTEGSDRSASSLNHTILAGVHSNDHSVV

Row | SMILES | IC50 [nM]
1 | Cc1noc(-c2ccc(-c3ccc(C4(C(=O)O)CC4)cc3)cc2)c1NC(C)C(O)Cc1ccccc1 (single isomer, unassigned) [Compound 1-283, 1-{4′-[4-(2-Hydroxy-1-methyl-3-phenyl-propylamino)-3-methyl-isoxazol-5-yl]-biphenyl-4-yl}-cyclopropanecarboxylic acid] | < 300
2 | Cc1noc(-c2ccc(-c3ccc(C4(C(=O)O)CC4)cc3)cc2)c1CCC(=O)N(C)C(C)c1ccccc1 (stereo in doubt) [Compound 1-117, 1-[4′-(3-Methyl-4-{2-[methyl-((R)-1-phenyl-ethyl)-carbamoyl]-ethyl}-isoxazol-5-yl)-biphenyl-4-yl]-cyclopropanecarboxylic acid] | 1000 to 50000
3 | Cc1noc(-c2ccc(-c3cccc(C(=O)O)c3)cc2)c1NC(=O)CCc1ccccc1 [Compound 1-1, 4′-[3-Methyl-4-(3-phenyl-propionylamino)-isoxazol-5-yl]-biphenyl-3-carboxylic acid] | 1000 to 50000
4 | Cc1noc(-c2ccc(-c3cccc(C(=O)O)c3)cc2)c1NC(=O)NCc1ccccc1 [Compound 1-2, 4′-[4-(3-Benzyl-ureido)-3-methyl-isoxazol-5-yl]-biphenyl-3-carboxylic acid] | 1000 to 50000
5 | Cc1noc(-c2ccc(-c3ccc(C4(C(=O)O)CC4)cc3)cc2)c1NC(=O)CC(C)C [Compound 1-3, 1-{4′-[3-Methyl-4-(3-methyl-butyrylamino)-isoxazol-5-yl]-biphenyl-4-yl}-cyclopropanecarboxylic acid] | 1000 to 50000
6 | Cc1noc(-c2ccc(-c3ccc(C4(C(=O)O)CC4)cc3)cc2)c1NC(=O)CCc1ccccc1 [Compound 1-4, 1-{4′-[3-Methyl-4-(3-phenyl-propionylamino)-isoxazol-5-yl]-biphenyl-4-yl}-cyclopropanecarboxylic acid] | 1000 to 50000
7 | Cc1noc(-c2ccc(-c3ccc(C4(C(=O)O)CC4)cc3)cc2)c1NC(=O)COc1ccccc1 [Compound 1-5, 1-{4′-[3-Methyl-4-(2-phenoxy-acetylamino)-isoxazol-5-yl]-biphenyl-4-yl}-cyclopropanecarboxylic acid] | 1000 to 50000
8 | Cc1noc(-c2ccc(-c3ccc(C4(C(=O)O)CC4)cc3)cc2)c1NC(=O)NCc1ccccc1 [Compound 1-6, 1-{4′-[4-(3-Benzyl-ureido)-3-methyl-isoxazol-5-yl]-biphenyl-4-yl}-cyclopropanecarboxylic acid] | < 300
9 | Cc1noc(-c2ccc(-c3ccc(C4(C(=O)O)CC4)cc3)cc2)c1NC(=O)NC(C)(C)C [Compound 1-7, 1-{4′-[4-(3-tert-Butyl-ureido)-3-methyl-isoxazol-5-yl]-biphenyl-4-yl}-cyclopropanecarboxylic acid] | < 300
10 | Cc1noc(-c2ccc(-c3ccc(C4(C(=O)O)CC4)cc3)cc2)c1NC(=O)N(C)C(C)C [Compound 1-8, 1-{4′-[4-(3-Isopropyl-3-methyl-ureido)-3-methyl-isoxazol-5-yl]-biphenyl-4-yl}-cyclopropanecarboxylic acid] | 1000 to 50000
11 | Cc1noc(-c2ccc(-c3ccc(C4(C(=O)O)CC4)cc3)cc2)c1NC(=O)N(C)[C@H](C)c1ccccc1 [Compound 1-9, 1-(4′-{3-Methyl-4-[3-methyl-3-((R)-1-phenyl-ethyl)-ureido]-isoxazol-5-yl}-biphenyl-4-yl)-cyclopropanecarboxylic acid] | 1000 to 50000
12 | Cc1noc(-c2ccc(-c3ccc(C4(C(=O)O)CC4)cc3)cc2)c1NC(=O)N[C@H](C)c1ccccc1 [Compound 1-11, 1-(4′-{3-Methyl-4-[3-((R)-1-phenyl-ethyl)-ureido]-isoxazol-5-yl}-biphenyl-4-yl)-cyclopropanecarboxylic acid] | < 300
13 | Cc1noc(-c2ccc(-c3ccc(C4(C(=O)O)CC4)cc3)cc2)c1NC(=O)NCc1ccccc1F [Compound 1-12, 1-(4′-{4-[3-(2-Fluoro-benzyl)-ureido]-3-methyl-isoxazol-5-yl}-biphenyl-4-yl)-cyclopropanecarboxylic acid] | < 300
14 | Cc1noc(-c2ccc(-c3ccc(C4(C(=O)O)CC4)cc3)cc2)c1NC(=O)NCC(F)(F)F [Compound 1-13, 1-(4′-{3-Methyl-4-[3-(2,2,2-trifluoro-ethyl)-ureido]-isoxazol-5-yl}-biphenyl-4-yl)-cyclopropanecarboxylic acid] | > 50000
15 | Cc1noc(-c2ccc(-c3ccc(C4(C(=O)O)CC4)cc3)cc2)c1NS(=O)(=O)Cc1ccccc1Cl [Compound 1-14, 1-{4′-[4-(2-Chloro-phenylmethanesulfonylamino)-3-methyl-isoxazol-5-yl]-biphenyl-4-yl}-cyclopropanecarboxylic acid] | 300 to 1000
16 | Cc1noc(-c2ccc(-c3ccc(C4(C(=O)O)CC4)cc3)cc2)c1NC(=O)NCc1cc(C(F)(F)F)ccc1F [Compound 1-15, 1-(4′-{4-[3-(2-Fluoro-5-trifluoromethyl-benzyl)-ureido]-3-methyl-isoxazol-5-yl}-biphenyl-4-yl)-cyclopropanecarboxylic acid] | 1000 to 50000
17 | Cc1noc(-c2ccc(-c3ccc(C4(C(=O)O)CC4)cc3)cc2)c1NC(=O)NCc1c(F)cccc1F [Compound 1-16, 1-(4′-{4-[3-(2,6-Difluoro-benzyl)-ureido]-3-methyl-isoxazol-5-yl}-biphenyl-4-yl)-cyclopropanecarboxylic acid] | 300 to 1000
18 | Cc1noc(-c2ccc(-c3ccc(C4(C(=O)O)CC4)cc3)cc2)c1NC(=O)C(C)Oc1ccccc1 (centres unmarked) [Compound 1-17, 1-{4′-[3-Methyl-4-(2-phenoxy-propionylamino)-isoxazol-5-yl]-biphenyl-4-yl}-cyclopropanecarboxylic acid] | 1000 to 50000
19 | Cc1noc(-c2ccc(-c3ccc(C4(C(=O)O)CC4)cc3)cc2)c1NC(=O)NS(=O)(=O)c1ccccc1 [Compound 1-18, 1-{4′-[4-(3-Benzenesulfonyl-ureido)-3-methyl-isoxazol-5-yl]-biphenyl-4-yl}-cyclopropanecarboxylic acid] | 1000 to 50000
20 | Cc1noc(-c2ccc(-c3ccc(C4(C(=O)O)CC4)cc3)cc2)c1COC(=O)N[C@H](C)c1ccccc1 [Compound 1-19, 1-{4′-[3-Methyl-4-((R)-1-phenyl-ethylcarbamoyloxymethyl)-isoxazol-5-yl]-biphenyl-4-yl}-cyclopropanecarboxylic acid] | < 300
21 | Cc1noc(-c2ccc(-c3ccc(C4(C(=O)O)CC4)cc3)cc2)c1COC(=O)NCc1ccccc1 [Compound 1-21, 1-[4′-(4-Benzylcarbamoyloxymethyl-3-methyl-isoxazol-5-yl)-biphenyl-4-yl]-cyclopropanecarboxylic acid] | < 300
22 | Cc1noc(-c2ccc(-c3ccc(C4(C(=O)O)CC4)cc3)cc2)c1COC(=O)N[C@@H](C)c1ccccc1 [Compound 1-22, 1-{4′-[3-Methyl-4-((S)-1-phenyl-ethylcarbamoyloxymethyl)-isoxazol-5-yl]-biphenyl-4-yl}-cyclopropanecarboxylic acid] | 1000 to 50000
23 | Cc1noc(-c2ccc(-c3ccc(C4(C(=O)O)CC4)cc3)cc2)c1COC(=O)NC1CCCC1 [Compound 1-23, 1-[4′-(4-Cyclopentylcarbamoyloxymethyl-3-methyl-isoxazol-5-yl)-biphenyl-4-yl]-cyclopropanecarboxylic acid] | < 300
24 | Cc1noc(-c2ccc(-c3ccc(C4(C(=O)O)CC4)cc3)cc2)c1CNCC1CC1 [Compound 1-27, 1-(4′-{4-[(Cyclopropylmethyl-amino)-methyl]-3-methyl-isoxazol-5-yl}-biphenyl-4-yl)-cyclopropanecarboxylic acid] | 1000 to 50000
25 | Cc1noc(-c2ccc(-c3ccc(C4(C(=O)O)CC4)cc3)cc2)c1CNCC1CCCCC1 [Compound 1-28, 1-(4′-{4-[(Cyclohexylmethyl-amino)-methyl]-3-methyl-isoxazol-5-yl}-biphenyl-4-yl)-cyclopropanecarboxylic acid] | > 50000
26 | Cc1noc(-c2ccc(-c3ccc(C4(C(=O)O)CC4)cc3)cc2)c1CNCc1ccccc1 [Compound 1-29, 1-{4′-[4-(Benzylamino-methyl)-3-methyl-isoxazol-5-yl]-biphenyl-4-yl}-cyclopropanecarboxylic acid] | 1000 to 50000
27 | CC(=O)N(CCc1ccccc1)Cc1c(C)noc1-c1ccc(-c2ccc(C3(C(=O)O)CC3)cc2)cc1 [Compound 1-30, 1-(4′-{4-[(Acetyl-phenethyl-amino)-methyl]-3-methyl-isoxazol-5-yl}-biphenyl-4-yl)-cyclopropanecarboxylic acid] | < 300
28 | Cc1noc(-c2ccc(-c3ccc(C4(C(=O)O)CC4)cc3)cc2)c1C=CCCc1ccccc1 [Compound 1-31, 1-{4′-[3-Methyl-4-(4-phenyl-but-1-enyl)-isoxazol-5-yl]-biphenyl-4-yl}-cyclopropanecarboxylic acid] | < 300
29 | Cc1noc(-c2ccc(-c3ccc(C4(C(=O)O)CC4)cc3)cc2)c1CC(=O)NC(C)c1ccccc1 (centres unmarked) [Compound 1-33, 1-(4′-{3-Methyl-4-[(1-phenyl-ethylcarbamoyl)-methyl]-isoxazol-5-yl}-biphenyl-4-yl)-cyclopropanecarboxylic acid] | < 300
